Laboratory results reported in US9226916B2, “Pyrrolidine derivatives” (HOFFMANN-LA ROCHE INC., priority 2009, dated 2016).
Like-named read-outs stand apart in the source and are kept apart here.

Target: T1, recombinant human NK3 receptor (Homo sapiens, UniProt P29371)
T1 construct: expressed in transfected cells; host or cells: HEK293 cells, transient expression; membranes
T1 sequence (P29371 1-465): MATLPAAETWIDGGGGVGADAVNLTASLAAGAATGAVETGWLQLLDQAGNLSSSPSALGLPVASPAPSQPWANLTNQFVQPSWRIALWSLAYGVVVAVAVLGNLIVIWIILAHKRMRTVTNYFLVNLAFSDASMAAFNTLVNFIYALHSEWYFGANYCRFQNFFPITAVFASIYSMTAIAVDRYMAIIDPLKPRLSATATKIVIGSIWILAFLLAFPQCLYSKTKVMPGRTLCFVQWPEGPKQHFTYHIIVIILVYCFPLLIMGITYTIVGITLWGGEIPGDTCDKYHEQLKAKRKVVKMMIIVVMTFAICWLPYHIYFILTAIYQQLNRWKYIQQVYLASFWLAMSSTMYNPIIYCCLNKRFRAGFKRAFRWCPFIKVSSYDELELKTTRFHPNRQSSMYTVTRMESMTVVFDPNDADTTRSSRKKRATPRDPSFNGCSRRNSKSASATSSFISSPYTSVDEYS
Experiment: [3H]SR142801 competition binding assay

| Structure (SMILES) | Ki | Ki (hNK-3 receptor affinity, membranes from HEK293 cells transiently expressing recombinant human NK3 receptor, [3H]SR142801, Cheng-Prussoff, read-out: Data Ki) |
| --- | --- | --- |
| CCC(=O)N1CCC(C(=O)N2C[C@@H](N(C)C(=O)Oc3ccc(F)cc3)[C@H](c3ccc(Cl)cc3)C2)C1 (stereo partly drawn) [Example 170, [(3S,4R)-4-(4-Chloro-phenyl)-1-(1-propionyl-pyrrolidine-3-carbonyl)-pyrrolidin-3-yl]-methyl-carbamic acid 4-fluoro-phenyl ester] | 8.3 nM | – |
| CN(C(=O)Oc1ccc(F)cc1)[C@@H]1CN(C(=O)C2CCN(C(=O)C3CC3)C2)C[C@H]1c1ccc(Cl)cc1 (stereo partly drawn) [Example 171, [(3S,4R)-4-(4-Chloro-phenyl)-1-(1-cyclopropanecarbonyl-pyrrolidine-3-carbonyl)-pyrrolidin-3-yl]-methyl-carbamic acid 4-fluoro-phenyl ester] | 9.5 nM | – |
| COCC(=O)N1CCC(C(=O)N2C[C@@H](N(C)C(=O)Oc3ccc(F)cc3)[C@H](c3ccc(Cl)cc3)C2)C1 (stereo partly drawn) [Example 172, {(3S,4R)-4-(4-Chloro-phenyl)-1-[1-(2-methoxy-acetyl)-pyrrolidine-3-carbonyl]-pyrrolidin-3-yl}-methyl-carbamic acid 4-fluoro-phenyl ester] | 4.1 nM | – |
| CN(C(=O)OC1CCC1)[C@@H]1CN(C(=O)C2CCN(c3ccc(C#N)cn3)CC2)C[C@H]1c1ccc(Cl)cc1 [Example 173, [(3S,4R)-4-(4-Chloro-phenyl)-1-(5′-cyano-3,4,5,6-tetrahydro-2H-[1,2′]bipyridinyl-4-carbonyl)-pyrrolidin-3-yl]-methyl-carbamic acid cyclobutyl ester] | – | 47 nM |
| CN(C(=O)OC1CC(F)(F)C1(F)F)[C@@H]1CN(C(=O)C2CCN(C(=O)C3(C)CC3)CC2)C[C@H]1c1ccc(Cl)cc1 (stereo partly drawn) [Example 175, {(3S,4R)-4-(4-Chloro-phenyl)-1-[1-(1-methyl-cyclopropanecarbonyl)-piperidine-4-carbonyl]-pyrrolidin-3-yl}-methyl-carbamic acid 2,2,3,3-tetrafluorocyclobutyl ester] | 36 nM | – |
| CN(C(=O)OC1CC(F)(F)C1(F)F)[C@@H]1CN(C(=O)C2CCN(c3ccc(C#N)cn3)CC2)C[C@H]1c1ccc(Cl)cc1 (stereo partly drawn) [Example 176, [(3S,4R)-4-(4-Chloro-phenyl)-1-(5′-cyano-3,4,5,6-tetrahydro-2H-[1,2′]bipyridinyl-4-carbonyl)-pyrrolidin-3-yl]-methyl-carbamic acid 2,2,3,3-tetrafluorocyclobutyl ester] | 4.6 nM | – |
| CC(CC(F)(F)F)OC(=O)N(C)[C@@H]1CN(C(=O)C2CCN(c3ccc(C#N)cn3)CC2)C[C@H]1c1ccc(Cl)cc1 (stereo partly drawn) [Example 177, [(3S,4R)-4-(4-Chloro-phenyl)-1-(5′-cyano-3,4,5,6-tetrahydro-2H-[1,2′]bipyridinyl-4-carbonyl)-pyrrolidin-3-yl]-methyl-carbamic acid 3,3,3-trifluoro-1-methyl-propyl ester] | 18.9 nM | – |
| CN(C(=O)Oc1ccc(F)cc1)[C@@H]1CN(C(=O)C2CCN(C3CCOCC3)C2)C[C@H]1c1ccc(Cl)cc1 (stereo partly drawn) [Example 179, {(3S,4R)-4-(4-Chloro-phenyl)-1-[1-(tetrahydro-pyran-4-yl)-pyrrolidine-3-carbonyl]-pyrrolidin-3-yl}-methyl-carbamic acid 4-fluoro-phenyl ester] | 56.6 nM | – |
| CN(C(=O)Oc1ccc(F)cc1)[C@@H]1CN(C(=O)C2CCN(c3ccc(S(C)(=O)=O)cn3)CC2)C[C@H]1c1ccc(Cl)cc1 [Example 180, [(3S,4R)-4-(4-Chloro-phenyl)-1-(5′-methanesulfonyl-3,4,5,6-tetrahydro-2H-[1,2′]bipyridinyl-4-carbonyl)-pyrrolidin-3-yl]-methyl-carbamic acid 4-fluoro-phenyl ester] | 0.7 nM | – |
| CN(C(=O)Oc1ccc(F)cc1)[C@@H]1CN(C(=O)C2CCN(c3ccc(C(F)(F)F)cn3)CC2)C[C@H]1c1ccc(Cl)cc1 [Example 181, [(3S,4R)-4-(4-Chloro-phenyl)-1-(5′-trifluoromethyl-3,4,5,6-tetrahydro-2H-[1,2′]bipyridinyl-4-carbonyl)-pyrrolidin-3-yl]-methyl-carbamic acid 4-fluoro-phenyl ester] | 2.8 nM | – |
| CC(=O)c1ccc(N2CCC(C(=O)N3C[C@@H](N(C)C(=O)Oc4ccc(F)cc4)[C@H](c4ccc(Cl)cc4)C3)CC2)nc1 [Example 182, [(3S,4R)-1-(5′-Acetyl-3,4,5,6-tetrahydro-2H-[1,2′]bipyridinyl-4-carbonyl)-4-(4-chloro-phenyl)-pyrrolidin-3-yl]-methyl-carbamic acid 4-fluoro-phenyl ester] | 2 nM | – |
| CN(C(=O)Oc1ccc(F)cc1)[C@@H]1CN(C(=O)C2CCN(c3ncccn3)CC2)C[C@H]1c1ccc(Cl)cc1 [Example 183, [(3S,4R)-4-(4-Chloro-phenyl)-1-(1-pyrimidin-2-yl-piperidine-4-carbonyl)-pyrrolidin-3-yl]-methyl-carbamic acid 4-fluoro-phenyl ester] | 16 nM | – |
| CN(C(=O)Oc1ccc(F)cc1)[C@@H]1CN(C(=O)C2CCN(c3ncc(Cl)cn3)CC2)C[C@H]1c1ccc(Cl)cc1 [Example 184, {(3S,4R)-4-(4-Chloro-phenyl)-1-[1-(5-chloro-pyrimidin-2-yl)-piperidine-4-carbonyl]-pyrrolidin-3-yl}-methyl-carbamic acid 4-fluoro-phenyl ester] | 6.7 nM | – |
| CN(C(=O)Oc1ccc(F)cc1)[C@@H]1CN(C(=O)C2CCN(c3cc(C#N)ccn3)CC2)C[C@H]1c1ccc(Cl)cc1 [Example 185, [(3S,4R)-4-(4-Chloro-phenyl)-1-(4′-cyano-3,4,5,6-tetrahydro-2H-[1,2′]bipyridinyl-4-carbonyl)-pyrrolidin-3-yl]-methyl-carbamic acid 4-fluoro-phenyl ester] | 3 nM | – |
| CN(C(=O)Oc1ccc(F)cc1)[C@@H]1CN(C(=O)C2CCN(c3ncccc3C#N)CC2)C[C@H]1c1ccc(Cl)cc1 [Example 186, [(3S,4R)-4-(4-Chloro-phenyl)-1-(3′-cyano-3,4,5,6-tetrahydro-2H-[1,2′]bipyridinyl-4-carbonyl)-pyrrolidin-3-yl]-methyl-carbamic acid 4-fluoro-phenyl ester] | 6 nM | – |
| CN(C(=O)Oc1ccc(F)cc1)[C@@H]1CN(C(=O)C2CCN(c3cncc(C#N)n3)CC2)C[C@H]1c1ccc(Cl)cc1 [Example 187, {(3S,4R)-4-(4-Chloro-phenyl)-1-[1-(6-cyano-pyrazin-2-yl)-piperidine-4-carbonyl]-pyrrolidin-3-yl}-methyl-carbamic acid 4-fluoro-phenyl ester] | 2.6 nM | – |
| CN(C(=O)Oc1ccc(F)cc1)[C@@H]1CN(C(=O)C2CCN(c3ncc(C(F)(F)F)cc3Cl)CC2)C[C@H]1c1ccc(Cl)cc1 [Example 188, [(3S,4R)-4-(4-Chloro-phenyl)-1-(3′-chloro-5′-trifluoromethyl-3,4,5,6-tetrahydro-2H-[1,2]bipyridinyl-4-carbonyl)-pyrrolidin-3-yl]-methyl-carbamic acid 4-fluoro-phenyl ester] | 14.6 nM | – |
| CN(C(=O)Oc1ccc(F)cc1)[C@@H]1CN(C(=O)C2CCN(c3cccc(C#N)n3)CC2)C[C@H]1c1ccc(Cl)cc1 [Example 189, [(3S,4R)-4-(4-Chloro-phenyl)-1-(6′-cyano-3,4,5,6-tetrahydro-2H-[1,2′]bipyridinyl-4-carbonyl)-pyrrolidin-3-yl]-methyl-carbamic acid 4-fluoro-phenyl ester] | 3.5 nM | – |
| COc1cnc(N2CCC(C(=O)N3C[C@@H](N(C)C(=O)Oc4ccc(F)cc4)[C@H](c4ccc(Cl)cc4)C3)CC2)nc1 [Example 190, {(3S,4R)-4-(4-Chloro-phenyl)-1-[1-(5-methoxy-pyrimidin-2-yl)-piperidine-4-carbonyl]-pyrrolidin-3-yl}-methyl-carbamic acid 4-fluoro-phenyl ester] | 17.2 nM | – |
| CN(C(=O)Oc1ccc(F)cc1)[C@@H]1CN(C(=O)C2CCN(c3ccncn3)CC2)C[C@H]1c1ccc(Cl)cc1 [Example 191, [(3S,4R)-4-(4-Chloro-phenyl)-1-(1-pyrimidin-4-yl-piperidine-4-carbonyl)-pyrrolidin-3-yl]-methyl-carbamic acid 4-fluoro-phenyl ester] | 1.2 nM | – |
| CN(C(=O)Oc1ccc(F)cc1)[C@@H]1CN(C(=O)C2CCN(c3ncc(C#N)cn3)CC2)C[C@H]1c1ccc(Cl)cc1 [Example 192, {(3S,4R)-4-(4-Chloro-phenyl)-1-[1-(5-cyano-pyrimidin-2-yl)-piperidine-4-carbonyl]-pyrrolidin-3-yl}-methyl-carbamic acid 4-fluoro-phenyl ester] | 3.6 nM | – |
| CN(C(=O)Oc1ccc(F)cc1)[C@@H]1CN(C(=O)C2CCN(c3cnc(C#N)cn3)CC2)C[C@H]1c1ccc(Cl)cc1 [Example 193, {(3S,4R)-4-(4-Chloro-phenyl)-1-[1-(5-cyano-pyrazin-2-yl)-piperidine-4-carbonyl]-pyrrolidin-3-yl}-methyl-carbamic acid 4-fluoro-phenyl ester] | 1.1 nM | – |
| Cc1ccc(N2CCC(C(=O)N3C[C@@H](N(C)C(=O)Oc4ccc(F)cc4)[C@H](c4ccc(Cl)cc4)C3)CC2)nc1 [Example 194, [(3S,4R)-4-(4-Chloro-phenyl)-1-(5′-methyl-3,4,5,6-tetrahydro-2H-[1,2′]bipyridinyl-4-carbonyl)-pyrrolidin-3-yl]-methyl-carbamic acid 4-fluoro-phenyl ester] | 3.5 nM | – |
| CN(C(=O)Oc1ccc(F)cc1)[C@@H]1CN(C(=O)C2CCN(c3ccc(F)cn3)CC2)C[C@H]1c1ccc(Cl)cc1 [Example 195, [(3S,4R)-4-(4-Chloro-phenyl)-1-(5′-fluoro-3,4,5,6-tetrahydro-2H-[1,2′]bipyridinyl-4-carbonyl)-pyrrolidin-3-yl]-methyl-carbamic acid 4-fluoro-phenyl ester] | 1.4 nM | – |
